# Results taken from patent US10287334B2, “Non-narcotic CRMP2 peptides targeting sodium channels for chronic pain” (priority 2014, dated 2019).
# “Also recorded” adds a separate entry of the source. Where two headings read alike, the source gives them in different places.
# How the values were obtained:
# [1] = system: rat spared nerve injury (SNI) model; type: in vivo
# [2] = system: rat spared nerve injury (SNI) model; type: in vivo; remark: listed apart in the source
# [3] = system: naïve male SD rats; settings: tat-CSM-1S by spinal delivery, over a 24 hour period
# [4] = system: rat dorsal root ganglion (DRG) neurons; experiment: Ouabain-induced increase in cytosolic Na+ (SBFI imaging) in DRG neurons; type: cell-based
# [5] = SNI rats, dose not given, p<0.05 vs BL-Post SNI
molecule,measurement,setting,value
NCC1(CC(=O)O)CCCCC1 [gabapentin],antihyperalgesic effect in SNI (reference drugs),[1]; [5],Antihyperalgesic effects
same,antiallodynic effect in SNI (reference drugs),[2]; [5],Antiallodynic effects
same,motor impairment / sedation on the rotarod,[3],decrease in the ability of naïve rats to remain on the rotating rod
same,motor impairment / sedation on the rotarod,[3]; listed as Gabapentin,significant sedation/motor impairment
CN1CC[C@]23c4c5ccc(O)c4O[C@H]2[C@@H](O)C=C[C@H]3[C@H]1C5 [morphine],antihyperalgesic effect in SNI (reference drugs),"[1]; rat, in vivo",Antihyperalgesic effects
same,antiallodynic effect in SNI (reference drugs),"[2]; rat, in vivo",Antiallodynic effects
NC1=N[C@H](O)[C@H]2[C@H]3O[C@]4(O)O[C@@H]([C@@H](O)[C@@]2(N1)[C@@H]4O)[C@]3(O)CO [tetrodotoxin],ouabain-induced increase in [Na+]c,[4],inhibited; also recorded: attenuate
Protox-II: a spider toxin that preferentially blocks NaV1.7 (YCQKWMWTCDSERKCCEGMVCRLWCKKKLW),ouabain-induced increase in [Na+]c,"[4]; 10 μM Protox-II, 1 mM ouabain",inhibited; also recorded: attenuate
